Experimental findings from PubChem BioAssay (NCI) are described below.

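Growth conditions: 96-well plates. Treatment: test compound, 48 hours, 5 concentrations. Analysis: linear interpolation between bracketing concentrations; unreached endpoints set to highest concentration. TGI: total growth inhibition.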

Some test systems named below: KM12 colon; IGROV1 ovarian; UO-31 renal; OVCAR-4 ovarian; MCF7 breast; M14 melanoma; EKVX NSCLC; MALME-3M melanoma; SN12C renal; SK-MEL-5 melanoma; COLO 205 colon; LOX IMVI melanoma; ACHN renal; NCI-H522 lung; NCI-H23 lung; NCI-H460 lung; HCT-116 colon; SR leukemia.
Assay in all cases: NCI tumour cell line growth inhibition, 48 h

As to `O=[N+]([O-])c1ccc2nc(/C=C(\O)c3ccccc3)c(NC34CC5CC(CC(C5)C3)C4)nc2c1`, the TGI with KM12 colon, with IGROV1 ovarian, in the assay with UO-31 renal, in the assay on OVCAR-4 ovarian, in the assay on MCF7 breast and in the assay on M14 melanoma was greater than 10 µM each time. Besides, the TGI in the assay on EKVX NSCLC, with MALME-3M melanoma, with SN12C renal, with SK-MEL-5 melanoma, with COLO 205 colon and with LOX IMVI melanoma was greater than 10 µM throughout. Further, the TGI in the assay with ACHN renal, with NCI-H522 lung, with NCI-H23 lung and in the assay on NCI-H460 lung was greater than 10 µM in each case.

On to `Cc1ccc(C2SCc3nc4ccccc4n32)cc1` (configuration not stated), for which the TGI is 20.6 µM in the assay on KM12 colon; greater than 100 µM with IGROV1 ovarian; 22.6 µM with UO-31 renal; 14 µM in the assay on HCT-116 colon; 92.8 µM with OVCAR-4 ovarian; 20.3 µM in the assay with MCF7 breast. Moreover, the TGI was greater than 100 µM with M14 melanoma; greater than 100 µM in the assay with EKVX NSCLC; 73.6 µM in the assay with MALME-3M melanoma; 38.6 µM in the assay on SN12C renal; 5.28 µM in the assay on SK-MEL-5 melanoma; 3.45 µM in the assay with COLO 205 colon. For the same compound, the TGI was 40.6 µM in the assay on LOX IMVI melanoma; greater than 100 µM in the assay on ACHN renal; 85.6 µM in the assay on NCI-H522 lung; 24.3 µM in the assay on NCI-H23 lung; greater than 100 µM in the assay on NCI-H460 lung.

`CC1=C(c2ccccc2)CON(c2ccccc2)C1`: the TGI with KM12 colon was greater than 100 µM; in the assay with IGROV1 ovarian it was greater than 100 µM; with UO-31 renal, 97.5 µM; with HCT-116 colon it was 79.9 µM; in the assay on OVCAR-4 ovarian, greater than 100 µM; with M14 melanoma it was greater than 100 µM. Further, the TGI with EKVX NSCLC is greater than 100 µM; in the assay on MALME-3M melanoma, greater than 100 µM; in the assay on SN12C renal, greater than 100 µM; in the assay with SK-MEL-5 melanoma, 47.5 µM; in the assay on COLO 205 colon, greater than 100 µM; in the assay on LOX IMVI melanoma, greater than 100 µM. Besides, the TGI with ACHN renal was greater than 100 µM; in the assay with NCI-H522 lung it was 53.8 µM; with SR leukemia, greater than 100 µM; in the assay on NCI-H23 lung, greater than 100 µM; with NCI-H460 lung, greater than 100 µM.

Regarding `COc1ccc(-c2n[nH]c3nc4ccccc4n3c2=O)cc1`, the TGI in the assay with KM12 colon, in the assay on IGROV1 ovarian, with UO-31 renal, in the assay with HCT-116 colon, in the assay on OVCAR-4 ovarian and in the assay on MCF7 breast was greater than 100 µM in each case. For the same compound, the TGI in the assay with M14 melanoma, with EKVX NSCLC, with MALME-3M melanoma, in the assay on SN12C renal, with SK-MEL-5 melanoma and in the assay on COLO 205 colon was greater than 100 µM in each case. The TGI in the assay with LOX IMVI melanoma, in the assay with ACHN renal, with NCI-H522 lung, with NCI-H23 lung and in the assay on NCI-H460 lung was greater than 100 µM each time.

Turning to `FC(F)(F)c1nc2c(ccc3[nH]c4c(-c5ccccc5)nccc4c32)[nH]1`, the TGI in the assay with KM12 colon, in the assay on IGROV1 ovarian, in the assay with UO-31 renal, in the assay on HCT-116 colon, in the assay on OVCAR-4 ovarian and in the assay with M14 melanoma was greater than 100 µM each time. In addition, the TGI in the assay on EKVX NSCLC is greater than 100 µM; with MALME-3M melanoma it was greater than 100 µM; in the assay on SN12C renal, greater than 100 µM; in the assay on SK-MEL-5 melanoma, greater than 100 µM; in the assay with COLO 205 colon, greater than 100 µM; with LOX IMVI melanoma it was greater than 75.9 µM. For the same compound, the TGI with ACHN renal was greater than 100 µM; in the assay on NCI-H522 lung, greater than 100 µM; in the assay on SR leukemia, 40.7 µM; in the assay with NCI-H23 lung, greater than 100 µM; with NCI-H460 lung, greater than 100 µM.

On to `N#Cc1n[nH]n(-c2ccccc2)c1=O`, for which the TGI in the assay with KM12 colon, with IGROV1 ovarian, in the assay on UO-31 renal, in the assay on HCT-116 colon, with OVCAR-4 ovarian and with MCF7 breast was greater than 100 µM each time. Moreover, the TGI in the assay with M14 melanoma, in the assay on EKVX NSCLC, in the assay with MALME-3M melanoma, in the assay with SN12C renal, in the assay with SK-MEL-5 melanoma and in the assay with COLO 205 colon was greater than 100 µM throughout. The TGI in the assay with LOX IMVI melanoma, with ACHN renal, with NCI-H522 lung and with NCI-H23 lung was greater than 100 µM in each case.

Consider `Nc1nc(Cl)cc(NCC2(CO)CC=CC2)n1`, for which the TGI in the assay on KM12 colon, in the assay on IGROV1 ovarian, in the assay with UO-31 renal, with HCT-116 colon, in the assay on OVCAR-4 ovarian and in the assay with MCF7 breast was greater than 100 µM throughout. In addition, the TGI in the assay on EKVX NSCLC, in the assay on MALME-3M melanoma, in the assay on SN12C renal, in the assay on SK-MEL-5 melanoma, in the assay with COLO 205 colon and with LOX IMVI melanoma was greater than 100 µM throughout. Further, the TGI with ACHN renal, in the assay with NCI-H522 lung and in the assay on NCI-H460 lung was greater than 100 µM throughout.

For the compound `COc1c(OC)c(OC)c2c(=O)c(OC)c(-c3ccc4c(c3)OCO4)oc2c1OC`, the TGI in the assay with KM12 colon, with IGROV1 ovarian, in the assay on UO-31 renal, with HCT-116 colon, in the assay on OVCAR-4 ovarian and with MCF7 breast was greater than 100 µM each time. Further, the TGI in the assay on M14 melanoma, in the assay on EKVX NSCLC, in the assay with MALME-3M melanoma, with SN12C renal, in the assay with SK-MEL-5 melanoma and in the assay on COLO 205 colon was greater than 100 µM in each case. Also, the TGI with LOX IMVI melanoma, in the assay on ACHN renal, in the assay with NCI-H522 lung, with NCI-H23 lung and in the assay with NCI-H460 lung was greater than 100 µM throughout.

On to `O=C(Cn1c2c(c3ccccc31)CCCC2)N1CCOCC1`, for which the TGI in the assay on IGROV1 ovarian, with UO-31 renal, in the assay on HCT-116 colon, in the assay on OVCAR-4 ovarian, in the assay with MCF7 breast and in the assay on M14 melanoma was greater than 100 µM throughout. Besides, the TGI in the assay on EKVX NSCLC, with MALME-3M melanoma, in the assay on SN12C renal, in the assay with SK-MEL-5 melanoma, in the assay on COLO 205 colon and in the assay with LOX IMVI melanoma was greater than 100 µM throughout. In addition, the TGI in the assay on ACHN renal, in the assay with NCI-H23 lung and in the assay with NCI-H460 lung was greater than 100 µM in each case.
